According to the NIST ThermoML archive (doi:10.1016/j.fluid.2005.07.009):

Columns and labels:
[1] = Molar enthalpy of transition or fusion; settings: DSC
[2] = DTA
[3] = molar heat capacity at constant pressure; settings: 101.33 kPa, Small sample (50 mg) DSC

NCCCN [1,3-propanediamine]
Crystal 1
Settings	Molar enthalpy of transition or fusion [kcal/mol]	Triple point temperature [K]
[1]	5.34	–
[2]	–	262.19

[3]
Settings	molar heat capacity at constant pressure [J/K/mol]
210.17 K, Crystal 2	95.15
211.63 K, Crystal 2	98.6
212.38 K, Crystal 2	99.24
213.45 K, Crystal 2	100.56
214.52 K, Crystal 2	101.65
215.39 K, Crystal 2	102.15
216.89 K, Crystal 2	102.21
217.39 K, Crystal 2	102.47
218.2 K, Crystal 2	103.01
219.56 K, Crystal 2	103.15
220.98 K, Crystal 2	103.33
221.6 K, Crystal 2	104.53
222.57 K, Crystal 2	105.45
223.61 K, Crystal 2	106.47
224.16 K, Crystal 2	106.75
225.7 K, Crystal 2	106.91
226.44 K, Crystal 2	107.67
226.87 K, Crystal 2	108.07
228.09 K, Crystal 2	108.1
229.51 K, Crystal 2	108.47
230.13 K, Crystal 2	109.74
231.59 K, Crystal 2	110.88
232.5 K, Crystal 2	111.31
233.79 K, Crystal 2	111.43
234.58 K, Crystal 2	113.62
235.36 K, Crystal 2	115.41
237.9 K, Crystal 2	116.57
238.39 K, Crystal 2	116.7
239.37 K, Crystal 2	117.02
240.41 K, Crystal 2	119.05
269.31 K, Liquid	200.32
271.34 K, Liquid	200.44
273.29 K, Liquid	200.87
275.36 K, Liquid	200.94
277.41 K, Liquid	201.41
279.63 K, Liquid	201.51
281.55 K, Liquid	201.82
283.37 K, Liquid	202.03
285.47 K, Liquid	202.29
287.35 K, Liquid	202.53
289.23 K, Liquid	202.79
291.28 K, Liquid	203.12
293.27 K, Liquid	203.44
295.53 K, Liquid	204.02
297.16 K, Liquid	204.35
299.44 K, Liquid	204.4
302.13 K, Liquid	204.56
304.68 K, Liquid	204.87
306.46 K, Liquid	204.95
308.51 K, Liquid	205.44
310.56 K, Liquid	205.49
312.42 K, Liquid	205.78
315.65 K, Liquid	206.16
317.6 K, Liquid	206.28
320.27 K, Liquid	206.67
322.36 K, Liquid	206.76
325.51 K, Liquid	207.27
327.54 K, Liquid	207.43
330.44 K, Liquid	207.85
333.46 K, Liquid	207.99

CCCCCCCCCCN [1-decanamine]
Settings	Molar enthalpy of transition or fusion [kcal/mol]
[1], Crystal	10.2

[3]
Settings	molar heat capacity at constant pressure [J/K/mol]
260.31 K, Crystal	259.31
260.64 K, Crystal	260.44
260.93 K, Crystal	261.21
261.39 K, Crystal	261.42
261.62 K, Crystal	262.06
261.99 K, Crystal	263.4
262.32 K, Crystal	263.89
262.67 K, Crystal	264.94
262.94 K, Crystal	265.77
263.34 K, Crystal	266.8
263.61 K, Crystal	266.97
263.92 K, Crystal	267.74
264.39 K, Crystal	269.3
264.62 K, Crystal	269.42
264.91 K, Crystal	270.38
265.33 K, Crystal	271.97
265.61 K, Crystal	272.3
265.95 K, Crystal	273.03
266.38 K, Crystal	274.58
266.67 K, Crystal	275.4
266.96 K, Crystal	275.97
267.36 K, Crystal	277.46
267.62 K, Crystal	278.39
267.94 K, Crystal	279.27
268.33 K, Crystal	280.36
268.66 K, Crystal	281.82
268.95 K, Crystal	282.79
269.32 K, Crystal	283.64
269.63 K, Crystal	284.29
270.21 K, Crystal	285.94
298.11 K, Liquid	372.55
299.64 K, Liquid	373.35
300.38 K, Liquid	373.78
301.27 K, Liquid	373.82
302.37 K, Liquid	374.25
303.41 K, Liquid	374.33
304.05 K, Liquid	374.34
305.25 K, Liquid	374.39
306.31 K, Liquid	374.86
307.28 K, Liquid	375.02
308.4 K, Liquid	375.08
309.24 K, Liquid	375.35
310.32 K, Liquid	375.6
311.09 K, Liquid	375.9
312.37 K, Liquid	376.23
313.36 K, Liquid	376.31
314.28 K, Liquid	376.34
315.23 K, Liquid	376.91
316.39 K, Liquid	377.46
317.53 K, Liquid	377.49
318.23 K, Liquid	377.55
319.33 K, Liquid	377.88
320.09 K, Liquid	377.93
321.19 K, Liquid	377.99
322.08 K, Liquid	378.21
323.45 K, Liquid	378.65
324.17 K, Liquid	379.09
325 K, Liquid	379.38
326.2 K, Liquid	379.69
327.09 K, Liquid	379.8
328.21 K, Liquid	379.88
329.22 K, Liquid	380.68
330.18 K, Liquid	380.93
331.23 K, Liquid	381.19
332.31 K, Liquid	381.58
333.26 K, Liquid	382.32

CCCCCCN [1-hexanamine]
Settings	Molar enthalpy of transition or fusion [kcal/mol]
[1], Crystal	5.98

[3]
Settings	molar heat capacity at constant pressure [J/K/mol]
205.12 K, Crystal	135.48
206.53 K, Crystal	137.42
207.27 K, Crystal	138.49
208.18 K, Crystal	140.02
209.16 K, Crystal	140.47
210.21 K, Crystal	141.21
211.81 K, Crystal	141.65
212.3 K, Crystal	141.8
213.41 K, Crystal	141.86
214.27 K, Crystal	141.99
215.45 K, Crystal	143.94
216.17 K, Crystal	144.89
217.45 K, Crystal	145.13
218.13 K, Crystal	145.21
219.48 K, Crystal	146.21
220.34 K, Crystal	147.15
221.19 K, Crystal	148.86
222.04 K, Crystal	149.71
223.38 K, Crystal	151.47
224.66 K, Crystal	152.29
225.39 K, Crystal	153.27
226.42 K, Crystal	155.08
228.17 K, Crystal	156.72
230.11 K, Crystal	160.13
267.26 K, Liquid	248.4
268.63 K, Liquid	248.52
269.54 K, Liquid	248.61
270.16 K, Liquid	248.66
271.24 K, Liquid	248.67
272.69 K, Liquid	248.95
273.56 K, Liquid	249.01
274.18 K, Liquid	249.09
275.88 K, Liquid	249.12
276.66 K, Liquid	249.26
277.16 K, Liquid	249.31
278.69 K, Liquid	249.34
279.94 K, Liquid	249.36
280.47 K, Liquid	249.45
281.8 K, Liquid	249.47
282.34 K, Liquid	249.48
283.41 K, Liquid	249.51
284.45 K, Liquid	249.55
285.4 K, Liquid	249.79
286.56 K, Liquid	249.85
287.39 K, Liquid	249.86
288.43 K, Liquid	250.09
289.09 K, Liquid	250.12
290.21 K, Liquid	250.23
292.36 K, Liquid	250.46
293.15 K, Liquid	250.5
295.59 K, Liquid	250.98

CCCCCCCCN [1-octanamine]
Settings	Molar enthalpy of transition or fusion [kcal/mol]
[1], Crystal	8.3

[3]
Settings	molar heat capacity at constant pressure [J/K/mol]
214.08 K, Crystal	167.97
215.55 K, Crystal	170.58
217.65 K, Crystal	171.84
218.54 K, Crystal	174.15
220.18 K, Crystal	175.59
221.56 K, Crystal	175.94
223.07 K, Crystal	176.5
224.56 K, Crystal	177.92
226.18 K, Crystal	179.15
227.54 K, Crystal	180.21
229.16 K, Crystal	180.94
230.51 K, Crystal	183.42
232.12 K, Crystal	185.1
233.53 K, Crystal	186.36
235.26 K, Crystal	187
236.54 K, Crystal	188.74
238.13 K, Crystal	189.62
239.53 K, Crystal	191.53
241.11 K, Crystal	193.65
242.56 K, Crystal	195.03
244.04 K, Crystal	196.53
245.1 K, Crystal	197.38
246.25 K, Crystal	197.77
247.23 K, Crystal	198.38
248.63 K, Crystal	203.31
249.05 K, Crystal	203.59
249.65 K, Crystal	203.61
251.8 K, Crystal	204.04
252.23 K, Crystal	204.62
253.02 K, Crystal	206.62
295.09 K, Liquid	304.31
295.53 K, Liquid	304.33
296.13 K, Liquid	304.35
296.41 K, Liquid	304.94
297.1 K, Liquid	304.99
297.32 K, Liquid	305.36
298.16 K, Liquid	305.42
298.58 K, Liquid	305.98
299.02 K, Liquid	306.08
299.35 K, Liquid	306.45
300.13 K, Liquid	306.53
300.53 K, Liquid	306.69
301.18 K, Liquid	307.19
301.52 K, Liquid	307.31
302.16 K, Liquid	307.33
302.56 K, Liquid	307.36
303.28 K, Liquid	307.81
303.51 K, Liquid	308.08
304.44 K, Liquid	308.1
304.71 K, Liquid	308.11
304.99 K, Liquid	308.47
305.64 K, Liquid	308.51
306.11 K, Liquid	308.52
306.59 K, Liquid	308.6
307.38 K, Liquid	308.63
307.5 K, Liquid	308.83
308.05 K, Liquid	308.92
308.54 K, Liquid	309.05
309.16 K, Liquid	309.12
309.24 K, Liquid	309.24
310.24 K, Liquid	309.3
310.53 K, Liquid	309.35
311.07 K, Liquid	309.39
311.51 K, Liquid	310.16
312.64 K, Liquid	310.21
313.22 K, Liquid	310.76

CCCCCCCCCCCO [1-undecanol]
Crystal
Settings	Molar enthalpy of transition or fusion [kcal/mol]	Triple point temperature [K]
[1]	7.31	–
[2]	–	289.63

[3]
Settings	molar heat capacity at constant pressure [J/K/mol]
208.41 K, Crystal	193.11
209.57 K, Crystal	193.3
210.11 K, Crystal	194.69
211.02 K, Crystal	194.71
212.12 K, Crystal	196.33
213.87 K, Crystal	198.62
214.48 K, Crystal	201.14
215.51 K, Crystal	201.98
216.84 K, Crystal	205.69
217.02 K, Crystal	206.89
218.35 K, Crystal	208.79
219.08 K, Crystal	211.05
220.29 K, Crystal	213.58
221.74 K, Crystal	215.54
222.1 K, Crystal	216.27
223.31 K, Crystal	218.06
224.39 K, Crystal	219.4
225.72 K, Crystal	221.14
226.26 K, Crystal	221.42
227.04 K, Crystal	223.37
228.49 K, Crystal	225.69
229.28 K, Crystal	228.09
230 K, Crystal	228.5
231.02 K, Crystal	229.81
232.16 K, Crystal	232.96
233.13 K, Crystal	234.38
234.75 K, Crystal	235.74
235.83 K, Crystal	237.03
236.92 K, Crystal	238.89
237.34 K, Crystal	238.93
238.6 K, Crystal	239.94
239.8 K, Crystal	239.99
241.66 K, Crystal	243.63
243.34 K, Crystal	245.99
244.18 K, Crystal	246.89
246.11 K, Crystal	250.54
297.08 K, Liquid	405.86
298.17 K, Liquid	407.32
299.23 K, Liquid	408.96
300.25 K, Liquid	409.93
301.38 K, Liquid	411.68
302.21 K, Liquid	412.61
303.18 K, Liquid	413.77
304.11 K, Liquid	414.87
305.18 K, Liquid	415.8
306.27 K, Liquid	417.37
307.49 K, Liquid	418.89
308.58 K, Liquid	419.76
309.32 K, Liquid	421.18
310.02 K, Liquid	422.07
311.09 K, Liquid	423.23
312.51 K, Liquid	425.11
313.48 K, Liquid	426.38
314.66 K, Liquid	427.93
315.71 K, Liquid	429.81
316.18 K, Liquid	430
318.29 K, Liquid	432.46
320.24 K, Liquid	435.26
321.15 K, Liquid	436.27
323.33 K, Liquid	439.56

CCCCCCCCCO [nonan-1-ol]
Crystal
Settings	Molar enthalpy of transition or fusion [kcal/mol]	Triple point temperature [K]
[1]	5.87	–
[2]	–	268.1

CCCCCCCCO [octan-1-ol]
Settings	Triple point temperature [K]
[2], Crystal	258.03
